In US20240148835A1, “TREATING DISORDERS ASSOCIATED WITH DYRK1A DYSFUNCTION” (UNIVERSITY OF FLORIDA RESEARCH FOUNDATION, INCORPORATED, priority 2021, published 2024):
“Also recorded” adds a separate entry of the source.

Tests used:
[1] = system: cHet primary cortical neurons; assay: In vitro primary cortical neuron culture, Sholl analysis of Ctip2+ neurons; assay type: cell-based, mouse
Description: Lastly, to test whether (1-3)IGF-1 treatment rescues the decreased complexity of Dyrk1a cHet neurons, we cultured control and cHet primary cortical neurons. Neurons analyzed were restricted to Ctip2+ neurons, as we are focused on the impact of Dyrk1a mutations on the growth and connectivity of layer V pyramidal neurons.
In vitro primary neuronal culture: Brains from P0 mice were removed, and whole cortices were dissected. Individual cortices were placed into 1 mL chilled dissecting media (1× HBSS (14175-095), 30 mM glucose, 60 μM HEPES). After aspiration of the dissecting media, the tissue was enzymatically dissociated with papain (LS003126) that was previously diluted 1:80 in pre-warmed plating media [Neurobasal A (10888-022), 5% FBS (16000044), and 1% penicillin/streptomycin (p/s)/0.25% glutamine (10378-016)] and incubated at 37° C. for 15 min. The papain was removed, and the tissue was pipetted into a single-cell suspension in plating media. The suspensions were filtered using 40 μm nylon cell strainers (Fisher Scientific, #352340), and the filtered suspension was centrifuged at 280 RCF for 5 min. […] Samples of the suspensions were diluted 1:4 in trypan blue, and cells were counted with a manual hemocytometer for determination of sample concentration. […]
All coverslip images were taken at 40× magnification on an Olympus VS-120 epifluorescence microscope and analyzed with ImageJ (NIH). […]

ASD mouse models = conditions: cited from earlier work

(1-3)IGF-1: a tripeptide cleaved from the N-terminus of IGF-1; acquired from VWR/Bachem, CAS No. 32302-76-4 (GPE; Insulin-like growth factor 1; UniProt P05019 49-51, looked up, fragment)
neuronal complexity (Sholl arborization) of cHet neurons ([1]; 100 ng/mL daily from DIV13 to DIV15, Ctip2+ neurons, DIV15): rescued; also recorded: rescues decreased arborization
neuronal complexity of control neurons ([1]; 100 ng/mL daily from DIV13 to DIV15, DIV15): did not affect control neurons
brain penetrance (ASD mouse models; ASD mouse models, dosage 10 μg/g (10 mg kg)): brain penetrance
signaling downstream of IGF-1 (ASD mouse models; within 3 hours post-injection): increased signaling downstream of IGF-1
